Source: US11840535B2, “Alkynyl(hetero)aromatic compound for inhibiting protein kinase activity” (Shenzhen TargetRx, Inc., priority 2018, dated 2023)

Tests used:
Ba/F3 parental cells = assay: Cell proliferation analysis, Ba/F3 parental; type: cell-based; conditions: Mus musculus, BaF3, 72 h; 8 ng/ml IL-3, 3 days, CellTiter-Glo
Procedure: (§1) The inhibitory effect of the example compounds on Ba/F3, Ba/F3 Bcr-Abl T315I cell activity was determined.
(§2) Materials and reagents: RPMI-1640 medium (GIBCO, Catalog No. A10491-01), fetal bovine serum (GIBCO, Catalog No. 10099141), antibiotics (Penicillin-Streptomycin), IL-3 (PeproTech), promycin; cell lines: Ba/F3, Ba/F3 Bcr-Abl T315I (Purchased from American type culture collection, ATCC), live cell detection kit […] (Promega, Catalog No. G7572), 96-well black wall transparent flat bottom cell culture plate (Corning, Catalog No. 3340).
(§3) Test method: 1. Preparation of cell plate: Ba/F3, Ba/F3 Bcr-Abl T315I cells were respectively seeded in 96-well plates, and 8 ng/ml IL-3 was added to the Ba/F3 cells, and the cell plates were placed in a carbon dioxide incubator and cultured overnight. 2. The test compounds were dissolved in DMSO, 9 compound concentrations were made with a 3.16-fold gradient dilution in triplicate. 3. Treatment of the cells with compounds: The compounds were transferred to the cell plate with a starting concentration of 10 μM. The cell plate was placed in a carbon dioxide incubator for 3 days. 4. Detection: CellTiter-Glo agent was added to the cell plate, and incubated at room temperature for 30 minutes to stabilize the luminous signal. PerkinElmer Envision multi-label analyzer was used for reading, wherein A represents […], B represents IC50 is 10-20 nM, C represents IC50 is 20-50 nM, D represents IC50 is 50-1000 nM, E represents IC50>1000 nM.

[1] = Metabolic stability evaluation, human liver microsome assay; type: in vitro ADME; conditions: pH 7.4, human liver microsomes 0.5 mg/mL, compound 1 μM, 37° C.; for microsomal CLint at 1 μM: read-out: HLM Clint; for half-life at 1 μM: read-out: HLM T1/2
Procedure: Microsome assay: human liver microsomes: 0.5 mg/mL, Xenotech; coenzyme (NADPH/NADH): 1 mM, Sigma Life Science; magnesium chloride: 5 mM, 100 mM phosphate buffer (pH is 7.4).
Preparation of stock solution: Powder of the example compounds and the reference compound were accurately weighed, and dissolved to 5 mM with DMSO, respectively.
Preparation of phosphate buffer (100 mM, pH7.4): Pre-formulated 150 mL 0.5 M potassium dihydrogen phosphate and 700 mL 0.5 M dipotassium hydrogen phosphate were mixed, then the pH of the mixture was adjusted to 7.4 with 0.5 M dipotassium hydrogen phosphate. Before use, 5-fold dilution was made with ultra-pure water, and magnesium chloride was added to afford phosphate buffer (100 mM), which containing 100 mM potassium phosphate, 3.3 mM magnesium chloride, and pH is 7.4.
NADPH regeneration system solution (containing 6.5 mM NADP, 16.5 mM G-6-P, 3 U/mL G-6-P D, 3.3 mM magnesium chloride) was prepared and placed on wet ice before use.
Preparation of stop solution: Acetonitrile solution containing 50 ng/mL propranolol hydrochloride and 200 ng/mL tolbutamide (internal standard). 25057.5 μL phosphate buffer (pH 7.4) was taken into a 50 mL centrifuge tube, and 812.5 μL human liver microsome was added respectively, mixed well to afford liver microsome diluention with a protein concentration of 0.625 mg/mL.
Incubation of the sample: The stock solutions of the corresponding compounds were diluted to 0.25 mM with an aqueous solution containing 70% acetonitrile as working solutions for use. 398 μL of human liver microsome diluention was taken and added to a 96-well incubation plate (N=2), respectively, and 2 μL of 0.25 mM working solutions were then added respectively, and mixed well.
Determination of metabolic stability: 300 μL of pre-chilled stop solution was added to each well of a 96-well deep well plate and the plate was placed on ice as a stop plate. The 96-well incubation plate and NADPH regeneration system were placed in a 37° C. water bath, shook at 100 rpm, and pre-incubated for 5 min. 80 μL of incubation solution was taken from each well of the incubation plate and added to the stop plate, mixed well, and 20 μL of NADPH regeneration system solution was supplemented, the resulted solution was considered as sample at 0 min. Then 80 μL of NADPH regeneration system solution was added to each well of the incubation plate to start the reaction and started timing. The reaction concentration of the corresponding compound is 1 μM, and the protein concentration is 0.5 mg/mL. 100 μL reaction solution was taken at 10, 30, 90 min of reaction, respectively, and added into stop plate, the reaction was stopped with 3 min vortex. The stop plate was centrifuged at 5000×g, 4° C. for 10 min. 100 μL of supernatant was taken to a 96-well plate where 100 μL of distilled water was added in advance, mixed well, sample analysis was carried out by LC-MS/MS.
Data analysis: LC-MS/MS system was used to detect peak area of corresponding compound and internal standard, peak area ratio of compound to internal standard was calculated. The slope was measured by plotting the natural logarithm of the remaining percentage of the compound versus time, and t1/2 and CLint were calculated according to the following formula, wherein V/M means 1/protein concentration.

ABL^T315I = ABL^T315I (Homo sapiens (Human), UniProt P00519, T315I); assay: Biochemical kinase analysis, ABL T315I
Procedure: (§4) Reagents and materials: ABL (ThermoFisher, Cat. No PV3585), ABL^T315I (Thermo Fisher, Cat. No. PR7429B), ATP (Sigma, Cat. No. A7699-1G), DMSO (Sigma, Cat. No. D2650), 96-well plate (Corning, Cat. No. 3365), 384-well plate (Greiner, Cat. No. 784076), buffer solution (Thermo Fisher, Cat. No. PR4876B).
(§5) Compound formulation: The test compounds were dissolved in DMSO to prepare a 20 mM stock solution. Before use, the compounds were diluted in DMSO to 0.1 mM, and diluted into 11 concentrations with a 3-fold gradient. When addition, diluentions of 4-fold final concentration were then made with buffer solution.
(§6) Kinase assay method: After preparing the buffer, the enzyme was mixed with pre-formulated and diluted compounds of different concentrations in duplicate for each concentration, and placed at room temperature for 30 minutes. The corresponding substrate and ATP were added thereto, and reacted at room temperature for 60 minutes (both a negative and a positive control were set). After the reaction, antibody was added for detection, Envision detection was carried out after 60 minutes incubation at room temperature, and data was collected. Data analysis and fitting were made according to XLfit5 software, wherein, A represents IC50≤5 nM, B represents IC50 is 5-50 nM, C represents IC50 is 50-100 nM, D represents IC50>100 nM.

[2] = system: Ba/F3 Bcr-Abl T315I cells; assay: Cell proliferation analysis, Ba/F3 Bcr-Abl T315I; type: cell-based; conditions: for IC50: Mus musculus, BaF3, 72 h, 3 days, CellTiter-Glo; for Selectivity [Ba/F3 (parental/Bcr-Abl ^T315I)]: ratio of Ba/F3 parental to Ba/F3 Bcr-Abl T315I
Procedure: as §1, §2, §3

ABL = ABL (Homo sapiens (Human), UniProt P00519); assay: Biochemical kinase analysis, ABL
Procedure: as §4, §5, §6

SMILES | IC50 (Ba/F3 parental cells) [nM] | microsomal CLint at 1 μM [1] [µL/min/mg] | half-life at 1 μM [1] [h] | IC50 (ABL^T315I) [nM] | IC50 [2] [nM] | Selectivity [Ba/F3 (parental/Bcr-Abl ^T315I)] [2] | IC50 (ABL) [nM]
CCn1cc(C#Cc2cc(C(=O)Nc3ccc(CN4CCN(C)CC4)c(C(F)(F)F)c3)ccc2C)c2c(N)ncnc21 [Example 5, 3-((4-amino-7-ethyl-7H-pyrrolo[2,3-d]pyrimidin-5-yl)ethynyl)-4-methyl-N-(4-((4-methylpiperazin-1-yl)methyl)-3-(trifluoromethyl)phenyl)benzamide] | 50 to 1000 | 19.9 | 1.16 | ≤ 5 | ≤ 10 | 100~150 | ≤ 5
CCn1cc(C#Cc2cc(C(=O)Nc3cccc(C(F)(F)F)c3)ccc2C)c2c(N)ncnc21 [Example 6, 3-((4-amino-7-ethyl-7H-pyrrolo[2,3-d]pyrimidin-5-yl)ethynyl)-4-methyl-N-(3-(trifluoromethyl)phenyl)benzamide] | > 1000 | 3.5 | 6.58 | ≤ 5 | 10 to 20 | 100~150 | ≤ 5
Cc1cn(-c2cc(NC(=O)c3ccc(C)c(C#Cc4cn(C)c5ncnc(N)c45)c3)cc(C(F)(F)F)c2)cn1 [Example 11, 3-((4-amino-7-methyl-7H-pyrrolo[2,3-d]pyrimidin-5-yl)ethynyl)-4-methyl-N-(3-(4-methyl-1H-imidazol-1-yl)-5-(trifluoromethyl)phenyl)benzamide] | > 1000 | – | – | 5 to 50 | 10 to 20 | >500 | ≤ 5
Cc1cn(-c2cc(NC(=O)c3ccc(C)c(C#Cc4cn(C(C)C)c5ncnc(N)c45)c3)cc(C(F)(F)F)c2)cn1 [Example 12, 3-((4-amino-7-isopropyl-7H-pyrrolo[2,3-d]pyrimidin-5-yl)ethynyl)-4-methyl-N-(3-(4-methyl-1H-imidazol-1-yl)-5-(trifluoromethyl)phenyl)benzamide] | > 1000 | 20.9 | 1.11 | 5 to 50 | 20 to 50 | 150~500 | 5 to 50
Cc1ccc(C(=O)Nc2cccc(C(F)(F)F)c2)cc1C#Cc1cn(C(C)C)c2ncnc(N)c12 [Example 13, 3-((4-amino-7-isopropyl-7H-pyrrolo[2,3-d]pyrimidin-5-yl)ethynyl)-4-methyl-N-(3-(trifluoromethyl)phenyl)benzamide] | > 1000 | – | – | 5 to 50 | 20 to 50 | 100~150 | 5 to 50
Cc1ccc(C(=O)Nc2cccc(C(F)(F)F)c2)cc1C#Cc1cn(C)c2ncnc(N)c12 [Example 14, 3-((4-amino-7-methyl-7H-pyrrolo[2,3-d]pyrimidin-5-yl)ethynyl)-4-methyl-N-(3-(trifluoromethyl)phenyl)benzamide] | > 1000 | – | – | ≤ 5 | 20 to 50 | 50~100 | ≤ 5
Cc1ccc(C(=O)Nc2ccc(CN3CCN(C)CC3)c(C(F)(F)F)c2)cc1C#Cc1cn(C(C)C)c2ncnc(N)c12 [Example 15, 3-((4-amino-7-isopropyl-7H-pyrrolo[2,3-d]pyrimidin-5-yl)ethynyl)-4-methyl-N-(4-((4-methylpiperazin-1-yl)methyl)-3-(trifluoromethyl)phenyl)benzamide] | > 1000 | 11.8 | 1.95 | ≤ 5 | 20 to 50 | 0~50 | ≤ 5
Cc1ccc(C(=O)Nc2ccc(CN3CCN(C)CC3)c(C(F)(F)F)c2)cc1C#Cc1cn(C)c2ncnc(N)c12 [Example 16, 3-((4-amino-7-methyl-7H-pyrrolo[2,3-d]pyrimidin-5-yl)ethynyl)-4-methyl-N-(4-((4-methylpiperazin-1-yl)methyl)-3-(trifluoromethyl)phenyl)benzamide] | > 1000 | – | – | ≤ 5 | ≤ 10 | 150~500 | ≤ 5
Cc1ccc(NC(=O)c2ccc(CN3CCN(C)CC3)c(C(F)(F)F)c2)cc1C#Cc1cn(C)c2ncnc(N)c12 [Example 19, N-(3-((4-amino-7-methyl-7H-pyrrolo[2,3-d]pyrimidin-5-yl)ethynyl)-4-methylphenyl)-4-((4-methylpiperazin-1-yl)methyl)-3-(trifluoromethyl)benzamide] | > 1000 | – | – | ≤ 5 | ≤ 10 | 150~500 | ≤ 5
CCn1cc(C#Cc2cc(NC(=O)c3cc(-n4cnc(C)c4)cc(C(F)(F)F)c3)ccc2C)c2c(N)ncnc21 [Example 21, N-(3-((4-amino-7-ethyl-7H-pyrrolo[2,3-d]pyrimidin-5-yl)ethynyl)-4-methylphenyl)-3-(4-methyl-1H-imidazol-1-yl)-5-(trifluoromethyl)benzamide] | 50 to 1000 | – | – | 5 to 50 | ≤ 10 | 50~100 | ≤ 5
Cc1ccc(C(=O)Nc2ccc(C)c(C(F)(F)F)c2)cc1C#Cc1cn([C@H]2CC[C@H](O)CC2)c2ncnc(N)c12 [Example 24, 3-((4-amino-7-((1r,4r)-4-hydroxycyclohexyl)-7H-pyrrolo[2,3-d]pyrimidin-5-yl)ethynyl)-4-methyl-N-(4-methyl-3-(trifluoromethyl)phenyl)benzamide] | > 1000 | – | – | 5 to 50 | 10 to 20 | 150~500 | ≤ 5
